We go through 21 compounds from PubChem BioAssay (NCI).

Broadly, the TGI is the concentration at which net growth stops. Read a low TGI as greater sensitivity of the cells.

The structures appear in SMILES notation.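 Each compound was tested at five concentrations against cells in 96-well plates for 48 hours. TGI: concentration producing complete growth inhibition.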

Holding throughout (experiment): DTP human tumour cell line panel, 48 h
For assay [1], the system named is NCI-H23 lung.
The subject of assay [2] is PC-3 prostate.
The subject of assay [3] is NCI-H522 lung.
The subject of assay [4] is NCI/ADR-RES ovarian.
Assay [5] has as its system K-562 leukemia.
For assay [6], the system named is MALME-3M melanoma.
The subject of assay [7] is SK-MEL-28 melanoma.
Assay [8] has as its system SK-MEL-2 melanoma.
Assay [9] relates to SNB-75 CNS.
The subject of assay [10] is TK-10 renal.

For the compound `O=C(/C=C/c1ccc(O)c(O)c1)OCCCc1ccccc1`, the TGI in assay [1] worked out at 35.3 µM; in assay [2], 24.4 µM; in [3], 5.59 µM; in assay [4], 28.6 µM; in assay [5] it was 58.9 µM; in assay [6] it was 25.4 µM. Also, the TGI in assay [7] turned out to be 31.2 µM; in [8], 46.4 µM.

With `CCCSc1ccc2[nH]c(N3C(=O)/C(=C/c4ccco4)N=C3c3ccccc3)cc2c1`, the TGI was more than 50 µM in assay [1]; more than 50 µM in [2]; 37.8 µM in assay [3]; more than 50 µM in assay [4]; more than 50 µM in assay [5]; more than 50 µM in assay [6]. In addition, the TGI is more than 50 µM in assay [7], 24.4 µM in assay [8] and more than 50 µM in [9].

Consider `CCC12CCCN(Cc3ccccc3)C1c1c([nH]c3ccccc13)C(C(=O)OC)C2` (stereo unspecified), for which the TGI in assay [1], in assay [2], in assay [3], in assay [4], in [5] and in assay [6] was more than 10 µM throughout. Besides, the TGI in assay [7], in assay [10] and in [9] was more than 10 µM in each case.

`C1CCC2(CC1)O[C@@H]1[C@@H](O2)[C@@H](O[C@H]2O[C@@H]3COC4(CCCCC4)O[C@H]3[C@@H]3OC4(CCCCC4)O[C@@H]23)O[C@@H]2COC3(CCCCC3)O[C@@H]12`: the TGI in assay [1], in [2], in assay [3], in assay [4], in [5] and in assay [6] was more than 100 µM in each case. Besides, the TGI in assay [7], in assay [8], in assay [10] and in assay [9] was more than 100 µM in each case.

For the compound `Cc1[nH]c2c(c1C)S(=O)(=O)c1cc3ccccc3nc1N2`, the TGI in assay [1] is more than 100 µM; in [2] it was more than 100 µM; in assay [3], 52 µM; in assay [4], more than 100 µM; in [5] it was more than 100 µM; in [6] it was 45.2 µM. For the same compound, the TGI in assay [7] is 67.3 µM; in assay [8], more than 100 µM; in assay [10] it was more than 100 µM; in assay [9], 45.7 µM.

On to `CCCCC(C#N)(OP1(=O)OC(c2ccccc2)C(C)N1C)c1ccccc1` (stereo unspecified), for which the TGI in [1] stood at 41.9 µM; in assay [2], 32.7 µM; in assay [3], 33.7 µM; in assay [4], 52 µM; in [5] it was 44.8 µM; in assay [6], 30.6 µM. Further, the TGI stood at 31.9 µM in assay [7], 34.2 µM in [8], 37.1 µM in [10] and 37.3 µM in assay [9].

Regarding `COC(=O)C1Cc2c(OC)ccc(OC)c2CC(C(=O)OC)C1=O` (stereo unspecified), the TGI is 85.3 µM in assay [1]; more than 100 µM in [2]; more than 100 µM in [3]; more than 100 µM in [4]; more than 100 µM in assay [5]; more than 100 µM in [6]. For the same compound, the TGI in [7] and in [9] was more than 100 µM each time.

As for `COc1ccc2nc3ccc(OC)cc3c(SCCO)c2c1`, the TGI in assay [1] was more than 100 µM; in assay [2], more than 100 µM; in [3], more than 34.9 µM; in assay [4], more than 80.3 µM; in [5], more than 100 µM; in [6], more than 96.2 µM. Moreover, the TGI in assay [7] was more than 100 µM; in [8] it was more than 84 µM; in assay [10], more than 100 µM; in assay [9], 81.8 µM.

For `CC(O)c1cc2c(s1)C(=O)c1sccc1C2=O` (stereo unspecified), the TGI in assay [2] was 1.43 µM; in [3], 0.602 µM; in assay [4] it was 0.59 µM; in assay [5], more than 100 µM; in [6], 0.0486 µM; in assay [7] it was 0.479 µM. Moreover, the TGI in assay [8] was found to be 0.215 µM; in assay [10], 0.459 µM; in assay [9] it was 0.218 µM.

As for `COc1ccc2c(CCN)c(C(=O)O)[nH]c2c1`, the TGI in assay [1], in assay [2], in [3], in [4], in assay [5] and in [6] was more than 100 µM in each case. In addition, the TGI in [7], in assay [8], in assay [10] and in assay [9] was more than 100 µM in each case.

As for `C[C@H](CCC(=O)NCCS(=O)(=O)O)[C@H]1CC[C@H]2[C@@H]3CC[C@@H]4C[C@H](O)CC[C@]4(C)[C@H]3CC[C@]12C`, the TGI in assay [1], in [2], in assay [3], in assay [4], in assay [5] and in [6] was more than 100 µM in each case. Moreover, the TGI in assay [7], in assay [8], in assay [10] and in assay [9] was more than 100 µM each time.

`CCCN1C(=O)CC(C)N(Cc2ccccc2Cl)C1=S` (stereo unspecified): the TGI in [1] is 56.7 µM; in assay [2], 55.7 µM; in assay [3] it was 56.6 µM; in assay [4], 53.1 µM; in [6] it was 56.7 µM; in assay [7], 62.4 µM. The results for the TGI in [8] and in [10] were 44.1 µM and 67.4 µM, respectively.

For `COC(=O)c1c(O)ccc2c1c1c(n2Cc2ccccc2Cl)C(=O)c2ccccc2C1=O`, the TGI in assay [1] was determined as 29.8 µM; in assay [2] it was 26.3 µM; in [3], 25.5 µM; in assay [4], 39.3 µM; in assay [5], 97.3 µM; in assay [6], 31.4 µM. The TGI was determined as 29.4 µM in assay [7], 33.8 µM in [8] and 30.6 µM in assay [10].

In the case of `CCC(CON(C)c1ccccc1)(SC)SC`, the TGI in assay [1], in assay [2], in assay [3], in [4], in [6] and in assay [7] was more than 100 µM throughout. Moreover, the TGI in assay [8], in assay [10] and in assay [9] was more than 100 µM throughout.

For the compound `NC(N)=N/N=C/c1nc2n(c1[N+](=O)[O-])CCS2`, the TGI in [1] was 42.6 µM; in [2], more than 100 µM; in [3] it was more than 100 µM; in assay [4], more than 100 µM; in assay [6], 30.8 µM; in assay [7], more than 100 µM. Also, the TGI in [8] was 44.7 µM; in assay [10], more than 100 µM; in [9] it was 60.2 µM.

For the compound `Cc1cnc2sn(-c3ccc(Oc4ccccc4)cc3)c(=O)c2c1`, the concentration for total growth inhibition (TGI) in [1] was found to be 80.3 µM; in [2] it was 29.8 µM; in assay [3] it was 25.3 µM; in [4], 55.7 µM; in assay [6] it was 9.07 µM; in assay [7], 33.3 µM. In addition, the TGI in [8] was more than 100 µM; in assay [10], 40.1 µM; in assay [9], 34.5 µM.

For the compound `C[C@]12CC[C@H]3[C@@H](CC=C4C[C@@H](N5CCCC5)CC[C@@]43C)[C@@H]1C[C@H](N1CCOCC1)[C@@H]2O`, the TGI in assay [1] is more than 100 µM; in assay [2], more than 100 µM; in [3], more than 100 µM; in assay [4], more than 100 µM; in assay [5] it was 74.3 µM; in assay [6] it was more than 100 µM. Besides, the TGI in assay [7], in [10] and in assay [9] was more than 100 µM each time.

As to `O=C(NCCC1([N+](=O)[O-])CCN(C(=O)c2ccccc2)CC1)c1ccccc1`, the total growth inhibition concentration (TGI) in assay [1], in assay [2], in [3], in assay [4], in assay [5] and in assay [6] was more than 100 µM each time. For the same compound, the TGI in assay [8] and in assay [10] was more than 100 µM throughout.

In the case of `CC1(C)N=C(C(N)=O)c2ncn(N)c2N1`, the TGI in [1], in assay [2], in [3], in [4], in [5] and in [6] was more than 100 µM each time. Further, the TGI in [7], in assay [10] and in assay [9] was more than 100 µM throughout.

Take `CCCCc1ccc(Nc2nc3c(ncn3C3CC(O)C(CN=[N+]=[N-])O3)c(=O)[nH]2)cc1` (stereo unspecified): the TGI in [1], in assay [2], in assay [3], in assay [4], in assay [5] and in [6] was more than 100 µM in each case. Further, the TGI in assay [7], in assay [8] and in [9] was more than 100 µM each time.

`Cn1c(=O)c(C(=O)Nc2nc(C34CC5CC(CC(C5)C3)C4)cs2)c(O)c2ccccc21`: the TGI in [1] was more than 100 µM; in [2], more than 100 µM; in [3] it was more than 100 µM; in assay [4], 70.2 µM; in [5], more than 100 µM; in [6], more than 100 µM. For the same compound, the TGI in assay [7], in [10] and in assay [9] was more than 100 µM throughout.
